Results reported in patent publication US7674801B2 (AstraZeneca AB, priority 2006, dated 2010).

Target: S. aureus (SAU) GyrB ATPase (Staphylococcus aureus, UniProt P0A0K8)
Test: S. aureus GyrB ATPase inhibition, ammonium molybdate/malachite green phosphate detection assay
Assay type: biochemical
Details: 10 compound concentrations; 500 μM ATP
Experimental: Compounds were tested for inhibition of GyrB ATPase activity using an ammonium molybdate/malachite green-based phosphate detection assay (Lanzetta, P. A., L. J. Alvarez, P. S. Reinach, and O. A. Candia, 1979, 100: 95-97). Assays were performed in multiwell plates in 100 μl reactions containing: 50 mM Hepes buffer pH 7.5, 75 mM ammonium acetate, 8.0 mM magnesium chloride, 1.0 mM ethylenediaminetetraacetic acid, 5% glycerol, 2 mM 1,4-Dithio-DL-threitol, 400 nM bovine serum albumin, 5 μg/ml sheared salmon sperm DNA, 1.25 nM E. coli GyrA, 1.25 nM S. aureus GyrB, 500 μM ATP, and compound in dimethylsulfoxide. Reactions were quenched with 150 μl of ammonium molybdate/malachite green detection reagent containing 1.2 mM malachite green hydrochloride, 8.5 mM ammonium molybdate tetrahydrate, and 1 M hydrochloric acid. Plates were read in an absorbance plate reader at 650 nm and percent inhibition values were calculated using dimethylsulfoxide (2%)-containing reactions as 0% inhibition and novobiocin-containing (2 μM) reactions as 100% inhibition controls. Compound potency was based on IC50 measurements determined from reactions performed in the presence of 10 different compound concentrations.

S. aureus (SAU) GyrB ATPase, sequence (P0A0K8 whole entry): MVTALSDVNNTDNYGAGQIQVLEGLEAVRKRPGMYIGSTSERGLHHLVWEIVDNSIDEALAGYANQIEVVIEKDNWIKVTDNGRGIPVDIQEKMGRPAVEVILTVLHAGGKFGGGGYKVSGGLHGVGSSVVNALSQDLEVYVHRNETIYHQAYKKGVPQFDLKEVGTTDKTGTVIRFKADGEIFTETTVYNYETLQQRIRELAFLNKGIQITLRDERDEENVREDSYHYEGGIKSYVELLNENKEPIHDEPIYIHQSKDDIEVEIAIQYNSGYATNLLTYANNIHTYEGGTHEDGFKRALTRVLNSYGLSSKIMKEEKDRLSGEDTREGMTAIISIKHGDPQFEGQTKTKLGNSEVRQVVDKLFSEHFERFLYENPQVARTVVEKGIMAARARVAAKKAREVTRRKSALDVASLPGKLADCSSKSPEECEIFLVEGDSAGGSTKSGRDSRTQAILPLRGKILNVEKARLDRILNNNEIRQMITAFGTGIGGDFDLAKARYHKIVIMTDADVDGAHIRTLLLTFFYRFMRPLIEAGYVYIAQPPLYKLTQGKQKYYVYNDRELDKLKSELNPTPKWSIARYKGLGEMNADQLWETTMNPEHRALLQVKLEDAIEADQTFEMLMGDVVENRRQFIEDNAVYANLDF
S. aureus (SAU) GyrB ATPase, sequence (P0AES4 whole entry, further chain): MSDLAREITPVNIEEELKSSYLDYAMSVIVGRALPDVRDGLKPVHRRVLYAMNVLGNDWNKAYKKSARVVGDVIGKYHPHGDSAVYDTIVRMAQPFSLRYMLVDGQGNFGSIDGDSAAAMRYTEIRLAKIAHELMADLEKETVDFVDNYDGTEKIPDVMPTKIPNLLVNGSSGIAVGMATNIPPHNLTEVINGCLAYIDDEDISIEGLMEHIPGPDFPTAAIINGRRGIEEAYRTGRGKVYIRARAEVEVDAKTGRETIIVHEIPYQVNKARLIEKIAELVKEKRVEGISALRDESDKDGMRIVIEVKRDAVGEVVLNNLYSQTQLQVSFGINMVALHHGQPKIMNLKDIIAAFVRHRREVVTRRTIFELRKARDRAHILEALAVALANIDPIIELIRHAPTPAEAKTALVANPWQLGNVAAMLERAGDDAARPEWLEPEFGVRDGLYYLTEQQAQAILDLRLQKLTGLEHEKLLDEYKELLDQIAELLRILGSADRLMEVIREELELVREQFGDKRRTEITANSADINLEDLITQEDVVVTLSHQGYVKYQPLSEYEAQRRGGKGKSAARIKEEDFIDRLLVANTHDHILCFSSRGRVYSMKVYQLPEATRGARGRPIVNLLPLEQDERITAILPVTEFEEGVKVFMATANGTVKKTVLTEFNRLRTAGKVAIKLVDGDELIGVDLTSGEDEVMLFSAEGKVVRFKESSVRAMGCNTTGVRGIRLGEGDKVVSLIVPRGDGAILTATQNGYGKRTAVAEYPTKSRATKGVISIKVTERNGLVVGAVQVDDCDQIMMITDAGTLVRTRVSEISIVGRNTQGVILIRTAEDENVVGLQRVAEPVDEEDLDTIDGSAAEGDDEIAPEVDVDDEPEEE

Row | Compound | IC50 [nM]
1 | CCNC(=O)Nc1ccc(-c2ncc(C(=O)O)s2)cn1 [Example 17, 2-(6-{[(ethylamino)carbonyl]amino}pyridin-3-yl)-1,3-thiazole-5-carboxylic acid] | 266
2 | CCNC(=O)Nc1ccc(-c2cncc(C(=O)O)c2)cn1 [Example 19, 6′-{[(Ethylamino)carbonyl]amino}-3,3′-bipyridine-5-carboxylic acid] | 846

Same assay, conditions: compound concentration 12.5 μM; 12.5 µM

Row | Compound | S. aureus (SAU) GyrB ATPase % Inhibition [%]
3 | CCNC(=O)Nc1ccc(-c2nc(-c3ncnn3C)c(C(=O)O)s2)cn1 [Example 90, 2-(6-{[(Ethylamino)carbonyl]amino}pyridin-3-yl)-4-(1-methyl-1H-1,2,4-triazol-5-yl)-1,3-thiazole-5-carboxylic acid] | 19.71

Same assay, conditions: read-out: S. aureus (SAU) GyrB ATPase % Inhibition, compound concentration 12.5 μM

Row | Compound | inhibition at 12.5 µM [%]
4 | CCNC(=O)Nc1ccc(-c2cccc3nc(C(=O)OCC)cn23)cn1 [Example 136, ethyl 5-(6-{[(ethylamino)carbonyl]amino}pyridin-3-yl)imidazo[1,2-a]pyridine-2-carboxylate] | 61
5 | CCCCNC(=O)c1nc(-c2ccc(NC(=O)NCC)nc2)sc1C(=O)N(C)C [Example 109, N^4-Butyl-2-(6-{[(ethylamino)carbonyl]amino}pyridin-3-yl)-N^5,N^5-dimethyl-1,3-thiazole-4,5-dicarboxamide] | 99.5
6 | CCNC(=O)Nc1ccc(-c2ccc3nc(C)c(C(N)=O)n3c2)cn1 [Example 155, 6-(6-{[(ethylamino)carbonyl]amino}pyridin-3-yl)-2-methylimidazo[1,2-a]pyridine-3-carboxamide] | 82.3
7 | CCNC(=O)Nc1ccc(-c2nc(C(=O)NC(C)C)c(C(=O)N(C)C)s2)cn1 [Example 67] | 92.5
8 | CCNC(=O)Nc1ccc(-c2nc(C(=O)NC(C)(C)C)c(C(N)=O)s2)cn1 [Example 111, N^4-(tert-Butyl)-2-(6-{[(ethylamino)carbonyl]amino}pyridin-3-yl)-1,3-thiazole-4,5-dicarboxamide] | 101
9 | CCNC(=O)Nc1ccc(-c2nc(-c3nccn3CCOC)c(C(=O)OC)s2)cn1 [Example 71, Methyl 2-(6-{[(ethylamino)carbonyl]amino}pyridin-3-yl)-4-[1-(2-methoxyethyl)-1H-imidazol-2-yl]-1,3-thiazole-5-carboxylate] | 93
10 | CCNC(=O)Nc1ncc(-c2cccc(C(=O)OC)c2)cn1 [Example 13, Methyl 3-(2-{[(ethylamino)carbonyl]amino}pyrimidin-5-yl)benzoate] | 99
11 | CCCCNC(=O)c1csc(-c2cnc(NC(=O)NCC)cc2-c2ccccc2)n1 [Example 163, N-butyl-2-(6-{[(ethylamino)carbonyl]amino}-4-phenylpyridin-3-yl)-1,3-thiazole-4-carboxamide] | 97.8
12 | CCNC(=O)Nc1cc(-c2cccc(C(=O)O)c2)ccn1 [Example 143, 3-(2-{[(ethylamino)carbonyl]amino}pyridin-4-yl)benzoic acid] | 99.1
13 | CCNC(=O)Nc1cc(-c2nc(C(F)(F)F)cs2)c(-c2ncc(C(=O)NC)s2)cn1 [Example 127, 2-{6-{[(Ethylamino)carbonyl]amino}-4-[4-(trifluoromethyl)-1,3-thiazol-2-yl]pyridin-3-yl}-N-methyl-1,3-thiazole-5-carboxamide] | 97
14 | CCNC(=O)Nc1ccc(-c2nc3cccc(C(=O)OCC)c3s2)cn1 [Example 4, Ethyl 2-(6-{[(ethylamino)carbonyl]amino}pyridin-3-yl)-1,3-benzothiazole-7-carboxylate] | 84
15 | CCCCNC(=O)c1nc(-c2ccc(NC(=O)NCC)nc2)sc1C(=O)OCC [Example 10, Ethyl 4-[(butylamino)carbonyl]-2-(6-{[(ethylamino)carbonyl]amino}pyridin-3-yl)-1,3-thiazole-5-carboxylate] | 92.6
16 | CCNC(=O)Nc1cc(-c2nc(C(C)(C)C)cs2)c(-c2cncc(C(=O)OCC)c2)cn1 [Example 141, ethyl 4′-(4-tert-butyl-1,3-thiazol-2-yl)-6′-{[(ethylamino)carbonyl]amino}-3,3′-bipyridine-5-carboxylate] | 99.2
17 | CCNC(=O)Nc1cc(-c2ccccc2)c(-c2cccc(C(=O)O)c2)cn1 [Example 96, 3-(6-{[(Ethylamino)carbonyl]amino}-4-phenylpyridin-3-yl)benzoic acid] | 95.4
18 | CCNC(=O)Nc1ccc(-c2nc(C(C)=O)c(C(N)=O)s2)cn1 [Example 154, 4-acetyl-2-(6-{[(ethylamino)carbonyl]amino}pyridin-3-yl)-1,3-thiazole-5-carboxamide] | 99.8
19 | CCNC(=O)Nc1cc(-c2nc(CC)cs2)c(-c2cncc(C(=O)O)c2)cn1 [Example 99, 6′-{[(Ethylamino)carbonyl]amino}-4′-(4-ethyl-1,3-thiazol-2-yl)-3,3′-bipyridine-5-carboxylic acid] | 102
20 | CCNC(=O)Nc1ccc(-c2ncc(C(=O)O)s2)cn1 [Example 17, 2-(6-{[(ethylamino)carbonyl]amino}pyridin-3-yl)-1,3-thiazole-5-carboxylic acid] | 99.1
21 | CCNC(=O)Nc1ccc(-c2cncc(C(=O)O)c2)cn1 [Example 19, 6′-{[(Ethylamino)carbonyl]amino}-3,3′-bipyridine-5-carboxylic acid] | 95.1
22 | CCNC(=O)Nc1ccc(-c2ccc(C(=O)OC)cc2)cn1 [Example 7, Methyl 4-(6-{[(ethylamino)carbonyl]amino}pyridin-3-yl)benzoate] | 97.4
23 | CCNC(=O)Nc1ncc(-c2cccc(C(=O)O)c2)cn1 [Example 29, 3-(2-{[(Ethylamino)carbonyl]amino}pyrimidin-5-yl)benzoic acid] | 13.6
24 | CCNC(=O)Nc1cc(-c2nc(CC)cs2)c(-c2cccc(C(=O)N(C)C)c2)cn1 [Example 160, 3-[6-{[(ethylamino)carbonyl]amino}-4-(4-ethyl-1,3-thiazol-2-yl)pyridin-3-yl]-N,N-dimethylbenzamide] | 95.5
25 | CCNC(=O)Nc1ccc(-c2nc(C(=O)OCC)cs2)cn1 [Example 2, Ethyl 2-(6-{[(ethylamino)carbonyl]amino}pyridin-3-yl)-1,3-thiazole-4-carboxylate] | 99.1
26 | CCNC(=O)Nc1ccc(-c2nc(-c3nccn3C)c(C(=O)O)s2)cn1 [Example 93, 2-(6-{[(Ethylamino)carbonyl]amino}pyridin-3-yl)-4-(1-methyl-1H-imidazol-2-yl)-1,3-thiazole-5-carboxylic acid] | 99.1
27 | CCNC(=O)Nc1nc(-c2cccc(C(=O)OC)c2)cs1 [Example 134, methyl 3-(2-{[(ethylamino)carbonyl]amino}-1,3-thiazol-4-yl)benzoate] | 7.09
28 | CCCNC(=O)c1sc(-c2ccc(NC(=O)NCC)nc2)nc1C(=O)N(C)C [Example 55, 2-[6-(3-Ethyl-ureido)-pyridin-3-yl]-thiazole-4,5-dicarboxylic acid 4-dimethylamide 5-propylamide] | 86.4
29 | CCNC(=O)Nc1ccc(-c2nc(C(=O)N(C)C)c(C(=O)OCC)s2)cn1 [Example 140, ethyl 4-[(dimethylamino)carbonyl]-2-(6-{[(ethylamino)carbonyl]amino}pyridin-3-yl)-1,3-thiazole-5-carboxylate] | 76.6
30 | CCNC(=O)Nc1ccc(-c2ccc3nc(C)c(C(=O)O)n3c2)cn1 [Example 148, 6-(6-{[(ethylamino)carbonyl]amino}pyridin-3-yl)-2-methylimidazo[1,2-a]pyridine-3-carboxylic acid] | 94.2
31 | CCNC(=O)Nc1cccc(-c2cccc(C(=O)OCC)c2)n1 [Example 15, Ethyl 3-(6-{[(ethylamino)carbonyl]amino}pyridin-2-yl)benzoate] | 97.9
